# According to US9096565B2, “Inhibitors of histone deacetylase” (MethylGene Inc., priority 2007, dated 2015):
# Biological target: one or more of HDAC-4, HDAC-5, HDAC-6, HDAC-7, HDAC-8, HDAC-9, HDAC-10 and HDAC-11
# Assay: Inhibition of histone deacetylase enzymatic activity (summary statement over isoforms)
# Type: biochemical
# Details: Table 3, selected examples; HDAC isoform not given
# Procedure: The following protocol is used to assay the compounds of the invention.
# The mixture is pre-incubated for 5 minutes at room temperature. The reaction is started by bringing the temperature to 37° C. and adding 15 μL substrate. Total reaction volume is 50 μL.
# A 30 mM stock of Boc-Lys(trifluoroacetyl)-AMC substrate is prepared in DMSO. […] Reaction is started by adding 18 μL Boc-Lys(trifluoroacetyl)-AMC substrate and incubating at 37° C. for 20-30 minutes. The reaction is stopped by adding 50 μL trypsin (1 mg/mL) and a known HDAC inhibitor.
row,IC50 [µM],SMILES
1,1 to 15,"O=C(NO)C(c1ccccc1)c1nc2cc(Cl)c(F)cc2[nH]1 (stereo not shown) [Compound 1-25, 2-(5-chloro-6-fluoro-1H-benzo[d]imidazol-2-yl)-N-hydroxy-2-phenylacetamide]"
2,< 1,"O=C(NO)C(c1ccccc1)n1cc(-c2ccccc2)nn1 (stereo not shown) [Compound 1-26, N-hydroxy-2-phenyl-2-(4-phenyl-1H-1,2,3-triazol-1-yl)acetamide]"
3,1 to 15,"O=C(NO)C(c1ccccc1)n1cc(CCc2ccccc2)nn1 (stereo not shown) [Compound 1-27, N-hydroxy-2-(4-phenethyl-1H-1,2,3-triazol-1-yl)-2-phenylacetamide]"
4,< 1,"CN(C)c1ccc(C(C(=O)NO)c2ccccc2)cc1 (stereo not shown) [Compound 1-29, 2-(4-(dimethylamino)phenyl)-N-hydroxy-2-phenylacetamide]"
5,< 1,"O=C(NO)C(c1ccccc1)N1CCC(Cc2ccc(F)cc2)CC1 (stereo not shown) [Compound 1-30, 2-(4-(4-fluorobenzyl)piperidin-1-yl)-N-hydroxy-2-phenylacetamide]"
6,< 1,"O=C(NO)C(c1ccccc1)N1CCC(CCc2ccccc2)CC1 (stereo not shown) [Compound 1-31, N-hydroxy-2-(4-phenethylpiperidin-1-yl)-2-phenylacetamide]"
7,< 1,"O=C(NO)C(c1ccccc1)c1ccc(-c2ccccc2)cc1 (stereo not shown) [Compound 1-32, 2-(biphenyl-4-yl)-N-hydroxy-2-phenylacetamide]"
8,< 1,"O=C(NO)C(C(=O)Nc1cccc(C(F)(F)F)c1)c1ccccc1 (stereo not shown) [Compound 1-33, N1-hydroxy-2-phenyl-N3-(3-(trifluoromethyl)phenyl)malonamide]"
9,< 1,"O=C(NO)C(c1ccccc1)n1cc(Cc2ccccc2)nn1 (stereo not shown) [Compound 1-35, 2-(4-benzyl-1H-1,2,3-triazol-1-yl)-N-hydroxy-2-phenylacetamide]"
10,< 1,"O=C(NO)C(c1ccccc1)N1CCN(c2ncccn2)CC1 (stereo not shown) [Compound 1-36, N-hydroxy-2-phenyl-2-(4-(pyrimidin-2-yl)piperazin-1-yl)acetamide]"
11,< 1,"O=C(NO)C(Sc1nccc(-c2ccc(Cl)cc2)n1)c1ccccc1 (stereo not shown) [Compound 1-37, 2-(4-(4-chlorophenyl)pyrimidin-2-ylthio)-N-hydroxy-2-phenylacetamide]"
12,< 1,"COc1ccccc1-c1nnc(C(C(=O)NO)c2ccccc2)s1 (stereo not shown) [Compound 1-38, N-hydroxy-2-(5-(2-methoxyphenyl)-1,3,4-thiadiazol-2-yl)-2-phenylacetamide]"
13,< 1,"O=C(NO)C(c1ccccc1)c1nnc(-c2ccc(Br)cc2)s1 (stereo not shown) [Compound 1-39, 2-(5-(4-bromophenyl)-1,3,4-thiadiazol-2-yl)-N-hydroxy-2-phenylacetamide]"
14,< 1,"CN(C)c1ccc(C(C(=O)NO)c2ccc(-c3ccccc3)cc2)cc1 (stereo not shown) [Compound 1-40, 2-(biphenyl-4-yl)-2-(4-(dimethylamino)phenyl)-N-hydroxyacetamide]"
15,< 1,"O=C(NO)C(c1ccccc1)c1ccc(N2CCCC2)cc1 (stereo not shown) [Compound 1-41, N-hydroxy-2-phenyl-2-(4-(pyrrolidin-1-yl)phenyl)acetamide]"
16,1 to 15,"O=C(NO)C(Sc1nc(-c2ccccc2)c(-c2ccccc2)[nH]1)c1ccccc1 (stereo not shown) [Compound 1-42, 2-(4,5-diphenyl-1H-imidazol-2-ylthio)-N-hydroxy-2-phenylacetamide]"
17,< 1,"O=C(NO)C(c1ccccc1)N1CCC(Oc2ccccc2)CC1 (stereo not shown) [Compound 1-43, N-hydroxy-2-(4-phenoxypiperidin-1-yl)-2-phenylacetamide]"
18,< 1,"O=C(NO)C(c1ccccc1)N1CCC(c2ccccc2)CC1 (stereo not shown) [Compound 1-44, N-hydroxy-2-phenyl-2-(4-phenylpiperidin-1-yl)acetamide]"
19,< 1,"O=C(NO)C(c1ccccc1)c1ccc(-c2ccc(F)cc2)cc1 (stereo not shown) [Compound 1-45, 2-(4′-fluorobiphenyl-4-yl)-N-hydroxy-2-phenylacetamide]"
20,< 1,"O=C(NO)C(Sc1ccc(-c2ccccc2)cc1)c1ccccc1 (stereo not shown) [Compound 1-46, 2-(biphenyl-4-ylthio)-N-hydroxy-2-phenylacetamide]"
21,< 1,"O=CN(O)C(c1ccccc1)c1ccccc1 [Compound 1-47, N-benzhydryl-N-hydroxyformamide]"
22,< 1,"O=C(NO)C(c1ccccc1)c1cccc(OCc2ccccc2)c1 (stereo not shown) [Compound 2-6, 2-(3-(benzyloxy)phenyl)-N-hydroxy-2-phenylacetamide]"

row,IC50 [µM],SMILES
1,1 to 15,"O=C(NO)C(c1ccccc1)c1cccc(OCCc2ccccc2)c1 (stereo not shown) [Compound 2-7, N-hydroxy-2-(3-phenethoxyphenyl)-2-phenylacetamide]"
2,< 1,"O=C(NO)C(c1ccccc1)c1cccc(OCc2ccc(F)cc2)c1 (stereo not shown) [Compound 2-8, 2-(3-(4-fluorobenzyloxy)phenyl)-N-hydroxy-2-phenylacetamide]"
3,< 1,"O=C(NO)C(c1ccccc1)c1ccc(OCC(=O)N2CCOCC2)cc1 (stereo not shown) [Compound 2-11, N-hydroxy-2-(4-(2-morpholino-2-oxoethoxy)phenyl)-2-phenylacetamide]"
4,< 1,"O=C(NO)C(c1ccccc1)c1ccc(OCCc2ccccc2)cc1 (stereo not shown) [Compound 2-12, N-hydroxy-2-(4-phenethoxyphenyl)-2-phenylacetamide]"
5,< 1,O=C(NO)C(c1ccccc1)c1ccc(OCc2ccc(F)cc2)cc1 (stereo not shown) [Compound 2-13]
6,< 1,"COc1cccc(COc2ccc(C(C(=O)NO)c3ccccc3)cc2)c1 (stereo not shown) [Compound 2-14, N-hydroxy-2-(4-(3-methoxybenzyloxy)phenyl)-2-phenylacetamide]"
7,1 to 15,"Cc1ccc(OC(C(=O)NO)c2ccccc2)cc1 (stereo not shown) [Compound 2-15, N-hydroxy-2-phenyl-2-(p-tolyloxy)acetamide]"
8,1 to 15,"O=C(NO)C(Oc1ccc2c(c1)CCC2)c1ccccc1 (stereo not shown) [Compound 2-16, 2-(2,3-dihydro-1H-inden-5-yloxy)-N-hydroxy-2-phenylacetamide]"
9,1 to 15,"CC(C)c1ccc(SC(C(=O)NO)c2ccccc2)cc1 (stereo not shown) [Compound 2-21, N-hydroxy-2-(4-isopropylphenylthio)-2-phenylacetamide]"
10,1 to 15,"CCCC(=O)N1CCCN(C(C(=O)NO)c2ccccc2)CC1 (stereo not shown) [Compound 2-22, 2-(4-butyryl-1,4-diazepan-1-yl)-N-hydroxy-2-phenylacetamide]"
11,1 to 15,"CCCC(=O)N1CCN(C(C(=O)NO)c2ccccc2)CC1 (stereo not shown) [Compound 2-23, 2-(4-butyrylpiperazin-1-yl)-N-hydroxy-2-phenylacetamide]"
12,1 to 15,"CC(C)(C)C(=O)N1CCCN(C(C(=O)NO)c2ccccc2)CC1 (stereo not shown) [Compound 2-24, N-hydroxy-2-phenyl-2-(4-pivaloyl-1,4-diazepan-1-yl)acetamide]"
13,1 to 15,"O=C(NO)C(c1ccccc1)N1CCN(C(=O)c2ccco2)CC1 (stereo not shown) [Compound 2-27, 2-(4-(furan-2-carbonyl)piperazin-1-yl)-N-hydroxy-2-phenylacetamide]"
14,1 to 15,"Cc1cccc(C(=O)N2CCCN(C(C(=O)NO)c3ccccc3)CC2)c1 (stereo not shown) [Compound 2-29, N-hydroxy-2-(4-(3-methylbenzoyl)-1,4-diazepan-1-yl)-2-phenylacetamide]"
15,1 to 15,"CC(C)NC(=O)N1CCCN(C(C(=O)NO)c2ccccc2)CC1 (stereo not shown) [Compound 2-31, 4-(2-(hydroxyamino)-2-oxo-1-phenylethyl)-N-isopropyl-1,4-diazepane-1-carboxamide]"
16,1 to 15,"O=C(NO)C(c1ccccc1)N1CCN(C(=O)Nc2cccnc2)CC1 (stereo not shown) [Compound 2-34, 4-(2-(hydroxyamino)-2-oxo-1-phenylethyl)-N-(pyridin-3-yl)piperazine-1-carboxamide]"
17,1 to 15,"Cc1ccccc1NC(=O)N1CCN(C(C(=O)NO)c2ccccc2)CC1 (stereo not shown) [Compound 2-36, 4-(2-(hydroxyamino)-2-oxo-1-phenylethyl)-N-o-tolylpiperazine-1-carboxamide]"
18,1 to 15,"COc1cccc(NC(=O)N2CCCN(C(C(=O)NO)c3ccccc3)CC2)c1 (stereo not shown) [Compound 2-37, 4-(2-(hydroxyamino)-2-oxo-1-phenylethyl)-N-(3-methoxyphenyl)-1,4-diazepane-1-carboxamide]"
19,< 1,"Cn1cnc(S(=O)(=O)N2CCN(C(C(=O)NO)c3ccccc3)CC2)c1 (stereo not shown) [Compound 2-38, N-hydroxy-2-(4-(1-methyl-1H-imidazol-4-ylsulfonyl)piperazin-1-yl)-2-phenylacetamide]"
20,1 to 15,"Cn1cnc(S(=O)(=O)N2CCCN(C(C(=O)NO)c3ccccc3)CC2)c1 (stereo not shown) [Compound 2-39, N-hydroxy-2-(4-(1-methyl-1H-imidazol-4-ylsulfonyl)-1,4-diazepan-1-yl)-2-phenylacetamide]"
21,1 to 15,"O=C(NO)C(c1ccccc1)N1CCN(Cc2cccnc2)CC1 (stereo not shown) [Compound 2-40, N-hydroxy-2-phenyl-2-(4-(pyridin-3-ylmethyl)piperazin-1-yl)acetamide]"
22,1 to 15,"O=C(NO)C(c1ccccc1)N1CCC2(CC1)OCCO2 (stereo not shown) [Compound 2-41, N-hydroxy-2-phenyl-2-(1,4-dioxa-8-azaspiro[4.5]decan-8-yl)acetamide]"

row,SMILES,IC50 [µM]
1,"O=C(NO)C(O)(c1ccccc1)c1ccccc1 [Compound 1-28, N,2-dihydroxy-2,2-diphenylacetamide]",< 1
2,"O=C(NO)C(c1ccccc1)N1CCC(c2c[nH]c3ccccc23)CC1 (stereo not shown) [Compound 1-34, 2-(4-(1H-indol-3-yl)piperidin-1-yl)-N-hydroxy-2-phenylacetamide]",< 1
3,"CCCCOc1cccc(C(C(=O)NO)c2ccccc2)c1 (stereo not shown) [Compound 2-5, 2-(3-butoxyphenyl)-N-hydroxy-2-phenylacetamide]",1 to 15
4,"CCCCOc1ccc(C(C(=O)NO)c2ccccc2)cc1 (stereo not shown) [Compound 2-10, 2-(4-butoxyphenyl)-N-hydroxy-2-phenylacetamide]",1 to 15
5,"O=C(NO)C(c1ccccc1)N1CCN(C(=O)Cc2ccccc2)CC1 (stereo not shown) [Compound 2-28, N-hydroxy-2-phenyl-2-(4-(2-phenylacetyl)piperazin-1-yl)acetamide]",1 to 15
